System: HeLa cell
Assay: Cell penetration of pep(CPP)-FITC conjugate in HeLa cell line, flow cytometry (FACS)
Type: cell-based, Homo sapiens
Settings: HeLa cells, 20 uM FITC-fused peptide, 37° C. for an hour, control = FITC only
Description: Homo sapiens cervix adenocarcinoma cell line as HeLa cell lines were purchased from ATCC (American Type Cell Culture). The cells were cultured in MEM supplemented with 10% fetal bovine serum (Invitrogen, USA), Earle's salts, non-essential amino acids, sodium pyruvate and 100 μg/ml penicillin and 10 units/ml streptomycin and cultured at 37° C., 5% CO2 incubator.
Flow cytometry and Confocal microscope analysis were performed to compare the between degree of cellular uptake of the cells were treated with SEQ ID NO: 2 to SEQ ID NO: 178, pep (CPP) and control.
The cell line was divided in a 6-well plate and cultured in a medium containing 10% fetal bovine serum (Invitrogen, USA), 100 μg/ml penicillin, 100 units/ml streptomycin at 37° C. 5% CO2 incubator for 12 hours. After washing the cell line with PBS, starvation was induced in a Minimum Essential Medium for an hour. 20 uM of each carrier peptide was treated and cultured at 37° C. for an hour. After repeating the step of washing the cells with PBS for three times, Trypsin-EDTA was treated form 10 mins at 37° C. to separate the carrier peptide on the outside of the cell. cells were collected with refrigerated PBS and centrifugation was performed to repeat the step of washing the cells for three times. After then, the cells were suspended in 0.5 ml of PBS containing 4% Paraformaldehyde and fluorescence of the cells was analyzed using FACS Calibur (Becton Dickinson). The cellular uptake aspect of control and various peptides combined with FITC was compared and analyzed by MFI (Mean Fluorescence Intensity).
Analysis results shown in FIGS. 2 to 29 are given in detail in Table 7 below.

Substance	cellular uptake, MFI (Mean Fluorescence Intensity)
EARPAL (listed as Homo sapiens) [Pep-RIA-87]	9.6 ± 1.76
LLT (listed as Homo sapiens) [Pep-RIA-152]	12.58 ± 0.47
TSRLRFIP (listed as Homo sapiens) [Pep-RIA-159]	12.58 ± 1.08
EARPALLTSRLRFIPKPD (listed as Homo sapiens) [Pep-RIA-65]	12.84 ± 1.11
QLRELSEAEVRQHREARPALLTSRLRFIPK (listed as Homo sapiens) [Pep-RIA-14]	23.67 ± 1.22
REARPALLTSRLRFIPKPDGL (listed as Homo sapiens) [Pep-RIA-30]	15.34 ± 0.55
RQHREARPALLTSRLRFIPK (listed as Homo sapiens) [Pep-RIA-4]	27.25 ± 0.79
ARPALLTSRL (listed as Homo sapiens) [Pep-RIA-113]	11.54 ± 1.57
SRLRFI (listed as Homo sapiens) [Pep-RIA-166]	6.97 ± 0.53
EARPALLTSRLRFIPKPDGLRPIV (listed as Homo sapiens) [Pep-RIA-71]	17.21 ± 0.52
HREARPALLTSRLRFIPK (listed as Homo sapiens) [Pep-RIA-2]	20.56 ± 1.23
EAR (listed as Homo sapiens) [Pep-RIA-90]	9.77 ± 0.97
LTSRLR (listed as Homo sapiens) [Pep-RIA-156]	12.21 ± 0.24
EARP (listed as Homo sapiens) [Pep-RIA-89]	9.13 ± 0.77
EVRQHREARPALLTSRLRFIPKPDGLRPI (listed as Homo sapiens) [Pep-RIA-58]	17.96 ± 0.97
PALLTSR (listed as Homo sapiens) [Pep-RIA-134]	13.28 ± 0.75
EVRQHREARPALLTSRLRFIPKPDG (listed as Homo sapiens) [Pep-RIA-42]	15.27 ± 1.65
AEVRQHREARPALLTSRLRFIPKP (listed as Homo sapiens) [Pep-RIA-51]	15.13 ± 1.03
HREARPALLTSRLRFIPKPD (listed as Homo sapiens) [Pep-RIA-17]	13.61 ± 0.22
SEAEVRQHREARPALLTSRLRFIPK (listed as Homo sapiens) [Pep-RIA-9]	12.7 ± 0.25
LLTSRLRFIP (listed as Homo sapiens) [Pep-RIA-146]	17.43 ± 0.49
EARPALLTSRLRFIPKPDGLRPIVNM (listed as Homo sapiens) [Pep-RIA-73]	24.33 ± 0.89
ALL (listed as Homo sapiens) [Pep-RIA-145]	13.85 ± 0.38

Substance	cellular uptake, MFI (Mean Fluorescence Intensity)
ALLTS (listed as Homo sapiens) [Pep-RIA-143]	13.24 ± 0.37
AEVRQHREARPALLTSRLRFIPKPDG (listed as Homo sapiens) [Pep-RIA-53]	15.85 ± 0.74
ARPALLTSRLRF (listed as Homo sapiens) [Pep-RIA-111]	20.53 ± 0.21
LSEAEVRQHREARPALLTSRLRFIPK (listed as Homo sapiens) [Pep-RIA-10]	14.64 ± 0.76
EVRQHREARPALLTSRLRFIPK (listed as Homo sapiens) [Pep-RIA-6]	16.09 ± 2.52
RPALL (listed as Homo sapiens) [Pep-RIA-127]	12.15 ± 0.89
RQHREARPALLTSRLRFIPKPDGLR (listed as Homo sapiens) [Pep-RIA-36]	14.07 ± 0.41
HREARPALLTSRLRFIPKPDGL (listed as Homo sapiens) [Pep-RIA-29]	15.26 ± 0.95
LTSRLRF (listed as Homo sapiens) [Pep-RIA-155]	14.31 ± 0.55
EARPALLTSR (listed as Homo sapiens) [Pep-RIA-83]	10.27 ± 0.25
EARPALLTSRLRFIPKPDGLRPIVNMDYV (listed as Homo sapiens) [Pep-RIA-76]	22.07 ± 0.64
EVRQHREARPALLTSRLRFIPKPD (listed as Homo sapiens) [Pep-RIA-41]	13.58 ± 2.78
RQHREARPALLTSRLRFIPKPDGL (listed as Homo sapiens) [Pep-RIA-27]	19.69 ± 0.49
FIPK (listed as Homo sapiens) [Pep-RIA-102]	12.64 ± 0.44
RQHREARPALLTSRLRFIPKPDGLRP (listed as Homo sapiens) [Pep-RIA-47]	17.6 ± 0.82
VRQHREARPALLTSRLRFIPKPDGLR (listed as Homo sapiens) [Pep-RIA-35]	13.22 ± 0.34
ALLTSRLRFIPK (listed as Homo sapiens) [Pep-RIA-94]	21.07 ± 1.56
RFIPK (listed as Homo sapiens) [Pep-RIA-101]	12.35 ± 0.28
RLRFIPK (listed as Homo sapiens) [Pep-RIA-99]	17.45 ± 0.19
REARPALLTSRLRFIPKPDGLR (listed as Homo sapiens) [Pep-RIA-39]	15.84 ± 0.79
REARPALLTSRLRFIPKP (listed as Homo sapiens) [Pep-RIA-15]	16.32 ± 0.36
HREARPALLTSRLRFIPKPDGLR (listed as Homo sapiens) [Pep-RIA-38]	18.02 ± 0.71
EVRQHREARPALLTSRLRFIPKPDGL (listed as Homo sapiens) [Pep-RIA-43]	15.34 ± 1.35

Substance	cellular uptake, MFI (Mean Fluorescence Intensity)
EVRQHREARPALLTSRLRFIPKP (listed as Homo sapiens) [Pep-RIA-40]	15.14 ± 3.52
PALLTSRLRFI (listed as Homo sapiens) [Pep-RIA-131]	13.66 ± 0.87
AEVRQHREARPALLTSRLRFIPKPD (listed as Homo sapiens) [Pep-RIA-52]	15.49 ± 0.29
LTSRLRFIPK (listed as Homo sapiens) [Pep-RIA-96]	14.96 ± 0.42
ARPALLTSRLR (listed as Homo sapiens) [Pep-RIA-112]	15.96 ± 1.24
TSRLRFIPK (listed as Homo sapiens) [Pep-RIA-97]	13.68 ± 0.37
HREARPALLTSRLRFIPKP (listed as Homo sapiens) [Pep-RIA-16]	15.96 ± 2.37
ALLTSRLRF (listed as Homo sapiens) [Pep-RIA-140]	21.18 ± 0.11
EARPALLTSRLRFIP (listed as Homo sapiens) [Pep-RIA-78]	13.95 ± 0.57
RELSEAEVRQHREARPALLTSRLRFIPK (listed as Homo sapiens) [Pep-RIA-12]	12.93 ± 0.18
PALL (listed as Homo sapiens) [Pep-RIA-137]	10.71 ± 1.99
LLTS (listed as Homo sapiens) [Pep-RIA-151]	8.81 ± 0.83
SRLRFIPK (listed as Homo sapiens) [Pep-RIA-98]	14.04 ± 1.55
LLTSRLRFI (listed as Homo sapiens) [Pep-RIA-147]	14.93 ± 1.55
ARPAL (listed as Homo sapiens) [Pep-RIA-118]	11.41 ± 1.03
SRLRFIP (listed as Homo sapiens) [Pep-RIA-165]	5.75 ± 0.41
ARPALLTS (listed as Homo sapiens) [Pep-RIA-115]	12.13 ± 0.34
ARPA (listed as Homo sapiens) [Pep-RIA-119]	11.19 ± 0.61
EARPALLTSRLRF (listed as Homo sapiens) [Pep-RIA-80]	14.7 ± 0.79
EVRQHREARPALLTSRLRFIPKPDGLRP (listed as Homo sapiens) [Pep-RIA-45]	14.23 ± 1.65
ALLTSRLR (listed as Homo sapiens) [Pep-RIA-107]	16.41 ± 1.36
EARPALLTSRLRFIPKPDGLR (listed as Homo sapiens) [Pep-RIA-68]	14.94 ± 1.88

— patent publication US11844845B2, “Cell penetrating peptide, conjugate comprising same, and composition comprising conjugate” (GEMVAX & KAEL CO., LTD., priority 2012, dated 2023)
